Tested on: mice mesenteric arteries
Assay: Vascular reactivity: vasorelaxation of phenylephrine-precontracted mesenteric arteries (wire or pressure myograph)
Assay type: cell-based
Details: for direct vascular action: dose-dependent vasorelaxation compared with Healthberry 865 / vasorelaxation reached: single anthocyanins 1 - 100 µg/mL; for vasorelaxation reached: dose-response curves
Method: Second-order branches of the mesenteric arterial tree were removed from mice to perform vascular studies. […] First, an analysis of vascular reactivity curves was performed. In particular, vasoconstriction was assessed with 80 mmol/L of KCI or with increasing doses of phenylephrine (from 10^-9 M to 10^-6 M) in control conditions. Endothelium-dependent and -independent relaxations were assessed by measuring the dilatory responses of mesenteric arteries to cumulative concentrations of acetylcholine (from 10^-9 M to 10^-6 M) or nitroglycerine (from 10^-9 M to 10^-6 M) respectively, in vessels precontracted with phenylephrine at the dose necessary to obtain a similar level of precontraction in each ring (80% of initial KCI-evoked contraction). Caution was taken to avoid endothelial damage; functional integrity was reflected by the response to acetylcholine (from 10^-9 M to 10^-6 M). […]
F) Comparison of vasorelaxant effect of AvailOm®, ω 3-FA, ω 3-EE or L-Lysine. Statistical analyses were performed using two-way ANOVA followed Bonferroni post-hoc test. *p<0.05; **p<0.01, ***p<0.001.

[1] = phenylephrine-precontracted mice mesenteric arteries

| Compound | direct vascular action: dose-dependent vasorelaxation compared with Healthberry 865 [1] | vasorelaxation reached | direct vasorelaxant action (dose-response) (phenylephrine-precontracted mice mesenteric arteries, increasing doses 5 - 300 µg/mL) |
| --- | --- | --- | --- |
| OC[C@H]1O[C@@H](Oc2cc3c(O)cc(O)cc3[o+]c2-c2ccc(O)c(O)c2)[C@H](O)[C@@H](O)[C@H]1O [C3-gal, Cyanidin-3-galactoside] | able to reproduce the direct vasorelaxant effect of Healthberry 865® | – | – |
| OC[C@H]1O[C@@H](Oc2cc3c(O)cc(O)cc3[o+]c2-c2ccc(O)c(O)c2)[C@H](O)[C@@H](O)[C@@H]1O [C3-glu, Cyanidin-3-glucoside] | none of the single anthocyanins was able to evoke a dose-dependent vasorelaxation comparable to that observed after Healthberry 865® administration | – | – |
| C[C@@H]1O[C@@H](OC[C@H]2O[C@@H](Oc3cc4c(O)cc(O)cc4[o+]c3-c3ccc(O)c(O)c3)[C@H](O)[C@@H](O)[C@@H]2O)[C@H](O)[C@H](O)[C@H]1O [C3-rut, Cyanidin-3-rutinoside] | none of the single anthocyanins was able to evoke a dose-dependent vasorelaxation comparable to that observed after Healthberry 865® administration | ~36,5% | – |
| Oc1cc(O)c2cc(O[C@H]3OC[C@H](O)[C@H](O)[C@H]3O)c(-c3cc(O)c(O)c(O)c3)[o+]c2c1 [DP3-ara, Delphinidin-3-arabinoside] | none of the single anthocyanins was able to evoke a dose-dependent vasorelaxation comparable to that observed after Healthberry 865® administration | – | – |
| OC[C@H]1O[C@@H](Oc2cc3c(O)cc(O)cc3[o+]c2-c2cc(O)c(O)c(O)c2)[C@H](O)[C@@H](O)[C@H]1O [DP3-gal, Delphinidin-3-galactoside] | none of the single anthocyanins was able to evoke a dose-dependent vasorelaxation comparable to that observed after Healthberry 865® administration | about 32,5% | – |
| OC[C@H]1O[C@@H](Oc2cc3c(O)cc(O)cc3[o+]c2-c2cc(O)c(O)c(O)c2)[C@H](O)[C@@H](O)[C@@H]1O [DP3-glu, Delphinidin-3-glucoside] | none of the single anthocyanins was able to evoke a dose-dependent vasorelaxation comparable to that observed after Healthberry 865® administration | – | – |
| NCCCC[C@H](N)C(=O)O [L-Lysine] | – | – | did not evoke any vasorelaxant effect |
| COc1cc(-c2[o+]c3cc(O)cc(O)c3cc2O[C@@H]2O[C@H](CO)[C@H](O)[C@H](O)[C@H]2O)cc(OC)c1O [MAL3-gal, Malvidin-3-galactoside] | none of the single anthocyanins was able to evoke a dose-dependent vasorelaxation comparable to that observed after Healthberry 865® administration | – | – |
| COc1cc(-c2[o+]c3cc(O)cc(O)c3cc2O[C@@H]2O[C@H](CO)[C@@H](O)[C@H](O)[C@H]2O)cc(OC)c1O [MAL3-glu, Malvidin-3-glucoside] | none of the single anthocyanins was able to evoke a dose-dependent vasorelaxation comparable to that observed after Healthberry 865® administration | – | – |
| COc1cc(-c2[o+]c3cc(O)cc(O)c3cc2O[C@@H]2O[C@H](CO)[C@@H](O)[C@H](O)[C@H]2O)cc(O)c1O [PT3-glu, Petunidin-3-glucoside] | none of the single anthocyanins was able to evoke a dose-dependent vasorelaxation comparable to that observed after Healthberry 865® administration | – | – |
| Peonidin-3-galactoside [PEO3-gal] | none of the single anthocyanins was able to evoke a dose-dependent vasorelaxation comparable to that observed after Healthberry 865® administration | – | – |
